# Reference: patent publication EP0684043A1, “Therapeutic composition for corneal impairment containing a phosphonic acid diester compound” (Senju Pharmaceutical Co., Ltd., priority 1994, dated 1995)
# Like-named read-outs stand apart in the source and are kept apart here.
# Tests used:
# [1] = Acute toxicity (LD50); settings: rat, in vivo, rats, read-out: LD₅₀
# Description: The compound for use as an active ingredient in the therapeutic composition for corneal impairment according to this invention is a very safe substance with an extremely low toxic potential and, as such, can be used with advantage for the purposes of this invention. [e.g. the LD₅₀ values of L-ascorbyl DL-α-tocopheryl phosphate potassium (hereinafter referred to briefly as EPC-K) ≧ 5 g/kg p.o. (rats) and ≧ 100 mg/kg i.v. (rats)].
# [2] = tested on: UV-induced corneal lesions in rabbits; assay: Inhibitory effect on UV-induced corneal lesions in rabbits (fluorescein penetration into cornea, anterior fluorophotometer); format: in vivo, White rabbits; settings: rabbit cornea
# Description: The inhibitory effect of the present compound on UV-induced corneal lesions in rabbits was evaluated. Test substance: L-Ascorbyl DL-α-tocopheryl phosphate potassium (abbreviation: EPC-K). Method: White rabbits were used; 4 animals assigned to the present compound treatment group and 3 assigned to a control group (the nictitating membrane was excised beforehand).
# For UV irradiation, Hoya-Schott's HLS200U (dominant wavelength 365 nm) equipped with a 200 W mercury-xenon lamp as the light source was used. Ushio Electric's Unimeter UIT-101 was used for the determination of luminous energy.
# One eye of each rabbit was kept open with an eye speculum and set at a distance of 43 cm from the light source so that the irradiation energy would be 0.024 J/cm². The eye was irradiated with ultraviolet light under the conditions of 0.2 mW/cm² and 2 minutes. The fellow eye was protected with an eye patch.
# After UV irradiation, the vehicle (2.6% concentrated glycerin solution) was instilled in the eyes of rabbits in the control group 3 times daily and 0.1% EPC-K (dissolved in 2.6% concentrated glycerin solution) was instilled as often into the eyes of rabbits in the present compound treatment group.
# The degree of rabbit corneal lesion was evaluated by the following method^1). Using fluorescein as a tracer, the fluorescence intensity of the tracer dye penetrating into the cornea within a predetermined region was measured for a quantitative assessment of the barrier function of the corneal epithelium (The corneal epithelium has a barrier function^2) to restrict penetration of any substance into the deep layer of the cornea and when an erosion or other injury occurs in the corneal epithelium, this barrier function is compromised so that the penetration of the substance into the depth of the cornea is increased). Thus, at 0, 0.5, 6, 12, 24, 48 and 72 hours after UV irradiation, fluorescein sodium was instilled into the eye and the fluorescence intensity of the fluorescein sodium that had penetrated into the cornea was measured with a Kowa anterior fluorophotometer. 1) Norihiko Yokoi et al.: Quantitative evaluation of corneal epithelial barrier function with a new fluorophotometer, Journal of the Eye, 10(8); 1357-1363, 1993 2) Klyce SD and Crosson CE: Transport processes across the rabbit corneal epithelium, a review. Curr Eye Res 4 4;427-432, 1985.
compound,measurement,setting,value
"Cc1c(C)c2c(c(C)c1OP(=O)(O)OC1=C(O)[C@@H]([C@@H](O)CO)OC1=O)CCC(C)(CCCC(C)CCCC(C)CCCC(C)C)O2 (mixture of isomers) [EPC-K, L-ascorbyl DL-α-tocopheryl phosphate potassium]",LD50,[1]; iv,≥ 100 mg/kg
same,LD50,[1]; po,≥ 5000 mg/kg
same,intensity of fluorescence,"[2]; 0 hours after UV irradiation, 0.1% EPC-K in 2.6% concentrated glycerin solution instilled 3 times daily, control group 457",259
same,intensity of fluorescence,"[2]; 0.5 hours after UV irradiation, 0.1% EPC-K instilled 3 times daily, control group 791",447
same,intensity of fluorescence,"[2]; 6 hours after UV irradiation, 0.1% EPC-K instilled 3 times daily, control group 899",695
same,intensity of fluorescence,"[2]; 12 hours after UV irradiation, 0.1% EPC-K instilled 3 times daily, control group 3813",1038
same,intensity of fluorescence,"[2]; 24 hours after UV irradiation, 0.1% EPC-K instilled 3 times daily, control group 3860",875
same,intensity of fluorescence,"[2]; 48 hours after UV irradiation, 0.1% EPC-K instilled 3 times daily, control group 870",343
same,intensity of fluorescence,"[2]; 72 hours after UV irradiation, 0.1% EPC-K instilled 3 times daily, control group 655",311
